# Results published in patent US6406679B1, “Use of HL-60-related lectins in drug delivery and detection of lectin-expressing cells” (Incyte Pharmaceuticals, Inc., priority 1992, dated 2002).
# Where “and” joins values, the source holds several entries; their conditions need not be identical. Equal entries are not always repeated.
# Legend:
# [1] = system: Jurkat T-cells on inflamed rat brain vascular endothelium; test: Binding to inflamed brain endothelium sections; format: cell-based, human; settings: 250 μg/ml lectin
# rat lymphocytes = test: Binding to sections of lymphoid organs (lymph nodes and Peyer's patch); format: cell-based; settings: control level binding very low, result cannot be relied on
# Method: Sections of lymphoid organs (lymph nodes and Peyer's patch) were tested as above.
# mice immunized with AChR = test: EAMG: muscle acetylcholine receptor content and Ig-complexed AChR; format: in vivo, mouse; settings: for % of AChR Complexed with Ig / Carcass AChR Content: 10 days after injection
# Method: After the observation period, the animals were sacrificed, skinned, and eviscerated; and a cholinergic receptor (AChR) extract was prepared as described by Lefvert, A. K. et al., Scand. J. Immunol. supra for determination of total AChR content and Ig-complexed AChR content, as described therein.
# Briefly, to determine total AChR content, known portions of the AChR extracts were incubated with a ten-fold excess of ^125I-alpha-bungarotoxin for 1 hour at 37° C. so as to label the receptor for quantitation. The mixture was subjected to gel filtration on Sephacryl G200 to separate free and bound toxin. To determine the amount of AChR complexed to IgG or IgM antibodies, the extract was incubated with a ten-fold excess of labeled bungarotoxin overnight at 4° C.; anti-mouse IgG or IgM was then added and the samples incubated overnight at 4° C., followed by separation of the precipitates, washing and counting.
# Lewis rat = test: Experimental autoimmune encephalomyelitis (EAE) induced with GPBP/CFA; format: in vivo
# Source text: Experimental autoimmune encephalomyelitis (EAE) is a T-cell-mediated disease considered to be a useful model for human paralytic and demyelinating diseases such as multiple sclerosis (Vandenbark, A. et al., J. Immunol. (1985) 135:223). In the Lewis rat, paralytic signs of EAE are induced about 14 days after injecting guinea pig myelin basic protein (GPBP) in Complete Freund's Adjuvant (CFA). It has been shown by Offner, H. et al. (J. Immunol. (1988) 141:3288) that T-cells specific for GPBP in immunized rats recognize amino acid residues 72-89 of GPBP and have the ability to transfer both clinical signs of EAE and delayed-type hypersensitivity reaction to GPBP to other animals.
# In the studies reported in this example, EAE was induced by injection of GPBP/CFA as described above.
# In one protocol intravenous administration of lectin was started at day 0 relative to 50 μg GPBP/CFA injection, with additional lectin treatment at days 3 and 6. The severity of the disease was determined clinically and histologically:
# “Clinical” Ratings are as Follows:
# 3=Hind quarter paralysis.
# “Histologic” Ratings are as Follows:
# Slides were examined for degree of inflammation with ratings as follows:
# 0.5=a few infiltrating cells in the meninges;
# 1=meningeal infiltration, more organized and concentrated around blood vessels;
# 2-4=increasing intensity of meningeal infiltration and perivascular cuffing in the CNS parenchyma.
# In a second protocol, lectin was first administered three days before immunization with 50 μg GPBP/CFA and was followed by daily injections until day 7 after immunization.
# In an additional experiment, animals were given various doses of lectin on days 0-12, following the administration of 10 μg GPBP injected intramuscularly.
# lymph node cells [2] = test: Proliferative response of draining lymph node cells of GPBP/CFA-injected rats; format: in vivo, rat
# Method: At the indicated times after injection of 50 μg GPBP/CFA, lymph nodes draining the site of injection were collected and tested for a proliferative response to GPBP, purified protein derivative (PPD), and the T-cell mitogen, Concanavalin A (ConA). Consistent with the DTH test, lymph node cells of the lectin-treated rats had low or absent responses to both GPBP and PPD relative to control rats, especially on days 14 and 21 during which EAE onset occurs.
# rats = test: Skin allograft, single grafts (FIG. 14); format: in vivo, rat; settings: 5 mg/kg recombinant lectin
# Method: In this experiment, 5 mg/kg recombinant lectin was used on rats bearing single grafts and the day of graft rejection was noted.
# lymph node cells [3] = test: In vivo effect of lectin on phenotypes of lymphocytes (antibody staining); set-up: species or system rat; settings: for % positive / F^L / % CHANGE IN POSITIVES: Lymph Node Cells
# Spleen Cells = test: as above; set-up: species or system rat; settings: for % positive / F^L / % CHANGE IN POSITIVES: Spleen Cells
# [4] = 250 μg lectin Days −3 to 6 daily
# [5] = 250 μg lectin Days −3 to 6 daily, background subtracted
# [6] = 250 μg lectin Days −3 to 6 daily, scale 0-4
# [7] = antibody 0X6, lectin vs control
# [8] = antibody 0X8 (suppressor T-cells)
# [9] = antibody 0X8, lectin vs control
# [10] = antibody 0X12, lectin vs control
# [11] = antibody IgG, lectin-treated rats
# [12] = antibody W3/13, lectin vs control
# [13] = antibody W3/25 (helper T-cells)
# [14] = antibody W3/25, lectin vs control
substance,measurement,setting,value
"Lectin: Soluble 14 kD β-galactoside-binding HL-60/placenta lectin of FIG. 1 (SEQ ID NO:2), prepared recombinantly in E. coli",Binding to Inflamed Brain Endothelium,[1],did not bind
same,Effect on binding of rat lymphocytes to lymphoid organ sections,rat lymphocytes,no noticeable effect
same,% of AChR Complexed with Ig,mice immunized with AChR; AChR + lectin 0.1 μg,48 ± 6.0%
same,Carcass AChR Content,mice immunized with AChR; AChR + lectin 0.1 μg,0.8 ± 0.4 mol × 10^−11
same,% of AChR Complexed with Ig,mice immunized with AChR; AChR + lectin 1 μg,52 ± 2.0%
same,Carcass AChR Content,mice immunized with AChR; AChR + lectin 1 μg,1.4 ± 0.3 mol × 10^−11
same,% of AChR Complexed with Ig,mice immunized with AChR; AChR + lectin 5 μg,44 ± 5.0%
same,Carcass AChR Content,mice immunized with AChR; AChR + lectin 5 μg,0.9 ± 0.5 mol × 10^−11
same,% of AChR Complexed with Ig,mice immunized with AChR; AChR + lectin 15 μg,11 ± 10.7%
same,Carcass AChR Content,mice immunized with AChR; AChR + lectin 15 μg,3.5 ± 0.4 mol × 10^−11
same,% of AChR Complexed with Ig,mice immunized with AChR; AChR + lectin 25 μg,11 ± 7.8%
same,Carcass AChR Content,mice immunized with AChR; AChR + lectin 25 μg,3.2 ± 0.6 mol × 10^−11
same,AChR loss and amount of Ig-complexed AChR,mice immunized with AChR; single subcutaneous doses of about 7.5-12 μg,lowered
same,Duration,"Lewis rat; 250 μg lectin Days 0, 3, 6",3.0 days and 3 days
same,Loss of Weight,"Lewis rat; 250 μg lectin Days 0, 3, 6",20 g
same,"Severity of Disease, Histological Rating","Lewis rat; 250 μg lectin Days 0, 3, 6, scale 0-4",3.5
same,Duration (days),Lewis rat; [4],0^3 days
same,Loss of Weight (g),Lewis rat; [4],None^3
same,"GPBP DTH (delayed type hypersensitivity reaction, swelling)",Lewis rat; [5],9 mm/100
same,"PPD DTH (delayed type hypersensitivity reaction, swelling)",Lewis rat; [5],4 mm/100
same,Clinical Severity of Disease,Lewis rat; [6],0^3/
same,Histologic Severity of Disease,Lewis rat; [6],0.50^3
same,Day of Onset,"Lewis rat; 250 μg lectin i.v. Days 0, 3, 6, 50 μg GPBP/CFA",17 days
same,daily dosage optimal for ameliorating the symptoms,"Lewis rat; 10-1500 μg intraperitoneally days 0-12, 10 μg GPBP, FIGS. 10 and 11",500 µg
same,development of the disease (EAE),"Lewis rat; lectin from three days before immunization, daily until day 7",prevented completely
same,lymph node cell proliferative responses to GPBP and PPD,"lymph node cells [2]; lectin-treated rats relative to control, especially days 14 and 21, FIG. 12",low or absent
same,lymph node cell responses to ConA,"lymph node cells [2]; lectin-treated rats, FIG. 12",normal or augmented
same,rejection of the skin allograft,rats,considerably delayed
same,% positive,lymph node cells [3]; antibody 0X6,10.0%
same,F^L,lymph node cells [3]; antibody 0X6,1208
same,% CHANGE IN POSITIVES,lymph node cells [3]; [7],0%
same,% positive,lymph node cells [3]; antibody 0X8,30.3%
same,F^L,lymph node cells [3]; [8],472
same,% CHANGE IN POSITIVES,lymph node cells [3]; [9],+28%
same,% positive,lymph node cells [3]; antibody 0X12,9.9%
same,F^L,lymph node cells [3]; antibody 0X12,316
same,% CHANGE IN POSITIVES,lymph node cells [3]; [10],0%
same,% positive,lymph node cells [3]; [11],16.4%
same,F^L,lymph node cells [3]; [11],129
same,% positive,lymph node cells [3]; antibody W3/13,99.5%
same,F^L,lymph node cells [3]; antibody W3/13 (total T-cells),442
same,% CHANGE IN POSITIVES,lymph node cells [3]; [12],0%
same,% positive,lymph node cells [3]; antibody W3/25,76.5%
same,F^L,lymph node cells [3]; [13],230
same,% CHANGE IN POSITIVES,lymph node cells [3]; [14],−0%
same,increase in the number of rat lymph node suppressor T-cells (0X8 reactive),lymph node cells [3]; lectin-treated animals,28%
same,% positive,Spleen Cells; antibody 0X6,15.6%
same,F^L,Spleen Cells; antibody 0X6,375
same,% CHANGE IN POSITIVES,Spleen Cells; [7],0%
same,% positive,Spleen Cells; antibody 0X8,41.2%
same,F^L,Spleen Cells; [8],323
same,% CHANGE IN POSITIVES,Spleen Cells; [9],+32%
same,% positive,Spleen Cells; antibody 0X12,15.4%
same,F^L,Spleen Cells; antibody 0X12,363
same,% CHANGE IN POSITIVES,Spleen Cells; [10],0%
same,% positive,Spleen Cells; [11],24.3%
same,F^L,Spleen Cells; [11],129
same,% positive,Spleen Cells; antibody W3/13,85.9%
same,F^L,Spleen Cells; antibody W3/13 (total T-cells),311
same,% CHANGE IN POSITIVES,Spleen Cells; [12],−19%
same,% positive,Spleen Cells; antibody W3/25,67.2%
same,F^L,Spleen Cells; [13],161
same,% CHANGE IN POSITIVES,Spleen Cells; [14],−24%
same,decrease in the numbers of spleen helper T-cells (w3/25 antibody reactive),Spleen Cells; lectin-treated animals,19%
same,decrease in the numbers of spleen total T-cells (w3/13 antibody reactive),Spleen Cells; lectin-treated animals,24%
same,increase in the number of spleen suppressor T-cells,Spleen Cells; lectin-treated animals,32%
